Assay results taken from ChEMBL document CHEMBL5360618, “PepScaf: Harnessing Machine Learning with In Vitro Selection toward De Novo Macrocyclic Peptides against IL-17C/IL-17RE Interaction” (J Med Chem, 2023).
Positions of bridges follow the written chain, without caps; N, C: chain ends. Residues, ends and D or L forms follow the SMILES beside them.

target: T1, IL17-RE-IL-17C (Homo sapiens, UniProt Q8NFR9+Q9P0M4); experiment: Inhibition of IL-17C/IL-17RE interaction (unknown origin) incubated for 1.5 hrs by ELISA method; assay type: protein-complex assay
T1 sequence (Q9P0M4 whole entry): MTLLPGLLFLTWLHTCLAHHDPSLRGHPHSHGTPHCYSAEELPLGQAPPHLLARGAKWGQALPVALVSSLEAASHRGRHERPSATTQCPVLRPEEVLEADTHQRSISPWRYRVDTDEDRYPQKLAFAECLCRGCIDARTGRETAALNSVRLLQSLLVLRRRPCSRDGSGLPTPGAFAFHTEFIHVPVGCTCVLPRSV
T1 sequence (Q8NFR9 whole entry): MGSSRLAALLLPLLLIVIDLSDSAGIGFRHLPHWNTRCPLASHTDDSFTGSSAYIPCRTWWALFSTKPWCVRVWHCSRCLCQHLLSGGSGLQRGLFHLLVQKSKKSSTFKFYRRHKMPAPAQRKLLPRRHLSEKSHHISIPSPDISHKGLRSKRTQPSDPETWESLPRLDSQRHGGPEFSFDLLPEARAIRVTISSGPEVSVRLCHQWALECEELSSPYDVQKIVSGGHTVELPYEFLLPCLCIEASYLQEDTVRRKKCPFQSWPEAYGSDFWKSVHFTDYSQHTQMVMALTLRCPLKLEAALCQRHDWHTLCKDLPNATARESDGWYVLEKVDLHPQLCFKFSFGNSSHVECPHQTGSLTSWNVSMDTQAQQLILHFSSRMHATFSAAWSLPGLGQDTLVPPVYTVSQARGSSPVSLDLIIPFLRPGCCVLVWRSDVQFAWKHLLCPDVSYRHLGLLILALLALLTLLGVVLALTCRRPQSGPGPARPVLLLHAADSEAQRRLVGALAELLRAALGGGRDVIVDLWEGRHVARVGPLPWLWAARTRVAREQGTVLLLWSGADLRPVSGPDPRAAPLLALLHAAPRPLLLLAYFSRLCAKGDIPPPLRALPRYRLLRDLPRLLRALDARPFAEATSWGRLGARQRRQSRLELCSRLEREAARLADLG

| SMILES | IC50 [nM] |
| --- | --- |
| CC(C)C[C@@H]1NC(=O)[C@H](Cc2ccc(O)cc2)NC(=O)[C@H](CC(=O)O)NC(=O)[C@H](CCCCN)NC(=O)[C@H](CC(C)C)NC(=O)[C@H](Cc2c[nH]c3ccccc23)NC(=O)[C@H](C)NC(=O)[C@H](CC(=O)O)NC(=O)[C@H](Cc2ccccc2)NC(=O)[C@H](Cc2c[nH]cn2)NC(=O)[C@H](Cc2ccc(O)cc2)NC(=O)CSC[C@@H](C(=O)NCC(N)=O)NC(=O)CNC1=O ({CH2CO}-YHFDAWLKDYLGCG-NH2; thioether N-13) | > 30000 |
| CC[C@H](C)[C@@H]1NC(=O)[C@H](CCCNC(=N)N)NC(=O)[C@H](Cc2ccc(O)cc2)NC(=O)[C@H](Cc2ccc(O)cc2)NC(=O)[C@H](Cc2c[nH]cn2)NC(=O)[C@H](Cc2c[nH]cn2)NC(=O)[C@H](Cc2ccc(O)cc2)NC(=O)CSC[C@@H](C(=O)NCC(N)=O)NC(=O)CNC(=O)[C@H](CC(C)C)NC(=O)[C@H](C(C)C)NC(=O)CNC(=O)[C@H](Cc2ccc(O)cc2)NC(=O)[C@H](CC(C)C)NC1=O ({CH2CO}-YHHYYRILYGVLGCG-NH2; thioether N-14) | 442 |
| CC(C)C[C@@H]1NC(=O)[C@H](CCC(=O)O)NC(=O)CNC(=O)[C@H](Cc2ccc(O)cc2)NC(=O)[C@H](CC(C)C)NC(=O)[C@H](Cc2ccccc2)NC(=O)[C@H](CCCNC(=N)N)NC(=O)[C@H](Cc2ccc(O)cc2)NC(=O)[C@H](Cc2ccc(O)cc2)NC(=O)[C@H](Cc2c[nH]cn2)NC(=O)[C@H](Cc2c[nH]cn2)NC(=O)[C@H](Cc2ccc(O)cc2)NC(=O)CSC[C@@H](C(=O)NCC(N)=O)NC(=O)CNC1=O ({CH2CO}-YHHYYRFLYGELGCG-NH2; thioether N-14) | 1670 |
| CC[C@H](C)[C@@H]1NC(=O)[C@H](CCCNC(=N)N)NC(=O)[C@H](Cc2ccc(O)cc2)NC(=O)[C@H](Cc2ccc(O)cc2)NC(=O)[C@H](Cc2c[nH]cn2)NC(=O)[C@H](CCC(N)=O)NC(=O)[C@H](Cc2ccc(O)cc2)NC(=O)CSC[C@@H](C(=O)NCC(N)=O)NC(=O)CNC(=O)[C@H](CC(C)C)NC(=O)[C@H](CCC(=O)O)NC(=O)CNC(=O)[C@H](Cc2ccc(O)cc2)NC(=O)[C@H](CC(C)C)NC1=O ({CH2CO}-YQHYYRILYGELGCG-NH2; thioether N-14) | > 30000 |
| CC[C@H](C)[C@@H]1NC(=O)[C@H](CCCNC(=N)N)NC(=O)[C@H](Cc2ccc(O)cc2)NC(=O)[C@H](Cc2ccc(O)cc2)NC(=O)[C@H](Cc2c[nH]cn2)NC(=O)[C@H](Cc2c[nH]cn2)NC(=O)[C@H](Cc2ccc(O)cc2)NC(=O)CSC[C@@H](C(=O)NCC(N)=O)NC(=O)CNC(=O)[C@H](CC(C)C)NC(=O)[C@H](CCC(=O)O)NC(=O)[C@H](C)NC(=O)[C@H](Cc2ccc(O)cc2)NC(=O)[C@H](CC(C)C)NC1=O ({CH2CO}-YHHYYRILYAELGCG-NH2; thioether N-14) | 1360 |
| CC[C@H](C)[C@@H]1NC(=O)[C@H](Cc2c[nH]c3ccccc23)NC(=O)[C@H](CC(N)=O)NC(=O)[C@H](Cc2ccc(O)cc2)NC(=O)[C@H](Cc2ccc(O)cc2)NC(=O)CSC[C@@H](C(=O)NCC(N)=O)NC(=O)[C@H](CO)NC(=O)[C@H]([C@@H](C)O)NC(=O)[C@H](CC(N)=O)NC(=O)[C@H](Cc2ccc(O)cc2)NC(=O)[C@H](Cc2ccc(O)cc2)NC(=O)[C@H](Cc2ccccc2)NC(=O)[C@H](Cc2c[nH]cn2)NC(=O)[C@H](CC(=O)O)NC1=O ({CH2CO}-YYNWIDHFYYNTSCG-NH2; thioether N-14) | > 30000 |
| CC[C@H](C)[C@@H]1NC(=O)[C@H](CCCNC(=N)N)NC(=O)[C@H](Cc2ccc(O)cc2)NC(=O)[C@H](Cc2ccc(O)cc2)NC(=O)[C@H](Cc2c[nH]cn2)NC(=O)[C@H](Cc2c[nH]cn2)NC(=O)[C@H](Cc2ccc(O)cc2)NC(=O)CSC[C@@H](C(=O)NCC(N)=O)NC(=O)[C@H](CO)NC(=O)[C@H](CC(C)C)NC(=O)[C@H](CCC(=O)O)NC(=O)CNC(=O)[C@H](Cc2ccc(O)cc2)NC(=O)[C@H](CC(C)C)NC1=O (stereo in doubt) | > 30000 |

The next molecules have a lower IC50 than those just listed; values first:

| IC50 [nM] | SMILES |
| --- | --- |
| 11.3 | CC[C@H](C)[C@@H]1NC(=O)[C@H](CCCNC(=N)N)NC(=O)[C@H](Cc2ccc(O)cc2)NC(=O)[C@H](Cc2ccc(O)cc2)NC(=O)[C@H](CC(C)C)NC(=O)[C@H](Cc2c[nH]cn2)NC(=O)[C@H](Cc2ccc(O)cc2)NC(=O)CSC[C@@H](C(=O)NCC(N)=O)NC(=O)CNC(=O)[C@H](CC(C)C)NC(=O)[C@H](CC(N)=O)NC(=O)CNC(=O)[C@H](Cc2ccc(O)cc2)NC(=O)[C@H](CC(C)C)NC1=O ({CH2CO}-YHLYYRILYGNLGCG-NH2; thioether N-14) |
| 10.4 | CC(C)C[C@@H]1NC(=O)[C@H](CC(N)=O)NC(=O)CNC(=O)[C@H](Cc2ccc(O)cc2)NC(=O)[C@H](CC(C)C)NC(=O)[C@H](CO)NC(=O)[C@H](C(C)C)NC(=O)[C@H](Cc2ccc(O)cc2)NC(=O)[C@H](Cc2ccc(O)cc2)NC(=O)[C@H](CCC(N)=O)NC(=O)[C@H](Cc2c[nH]cn2)NC(=O)[C@H](Cc2ccc(O)cc2)NC(=O)CSC[C@@H](C(=O)NCC(N)=O)NC(=O)CNC1=O ({CH2CO}-YHQYYVSLYGNLGCG-NH2; thioether N-14) |
| 9.6 | CC(C)C[C@@H]1NC(=O)[C@H](CC(N)=O)NC(=O)CNC(=O)[C@H](Cc2ccc(O)cc2)NC(=O)[C@H](CC(C)C)NC(=O)[C@H](CO)NC(=O)[C@H](C)NC(=O)[C@H](Cc2ccc(O)cc2)NC(=O)[C@H](Cc2ccc(O)cc2)NC(=O)[C@H](CC(C)C)NC(=O)[C@H](Cc2c[nH]cn2)NC(=O)[C@H](Cc2ccc(O)cc2)NC(=O)CSC[C@@H](C(=O)NCC(N)=O)NC(=O)CNC1=O ({CH2CO}-YHLYYASLYGNLGCG-NH2; thioether N-14) |
| 7.9 | CC(C)C[C@@H]1NC(=O)[C@H](CO)NC(=O)CNC(=O)[C@H](Cc2ccc(O)cc2)NC(=O)[C@H](CC(C)C)NC(=O)[C@H](CO)NC(=O)[C@H](CCC(N)=O)NC(=O)[C@H](Cc2ccc(O)cc2)NC(=O)[C@H](Cc2ccc(O)cc2)NC(=O)[C@H](C(C)C)NC(=O)[C@H](Cc2c[nH]cn2)NC(=O)[C@H](Cc2ccc(O)cc2)NC(=O)CSC[C@@H](C(=O)NCC(N)=O)NC(=O)CNC1=O ({CH2CO}-YHVYYQSLYGSLGCG-NH2; thioether N-14) |
| 5.5 | CC(C)C[C@@H]1NC(=O)[C@H](CC(N)=O)NC(=O)CNC(=O)[C@H](Cc2ccc(O)cc2)NC(=O)[C@H](CC(C)C)NC(=O)[C@H](CO)NC(=O)[C@H](Cc2ccc(O)cc2)NC(=O)[C@H](Cc2ccc(O)cc2)NC(=O)[C@H](Cc2ccc(O)cc2)NC(=O)[C@H](CC(C)C)NC(=O)[C@H](Cc2c[nH]cn2)NC(=O)[C@H](Cc2ccc(O)cc2)NC(=O)CSC[C@@H](C(=O)NCC(N)=O)NC(=O)CNC1=O ({CH2CO}-YHLYYYSLYGNLGCG-NH2; thioether N-14) |
| 4.2 | CC[C@H](C)[C@@H]1NC(=O)[C@H](Cc2c[nH]cn2)NC(=O)[C@H](Cc2ccc(O)cc2)NC(=O)CSC[C@@H](C(=O)NCC(N)=O)NC(=O)CNC(=O)[C@H](CC(C)C)NC(=O)[C@H](CCCCN)NC(=O)CNC(=O)[C@H](Cc2ccc(O)cc2)NC(=O)[C@H](CC(C)C)NC(=O)[C@H](CO)NC(=O)[C@H](C)NC(=O)[C@H](Cc2ccc(O)cc2)NC(=O)[C@H](Cc2ccc(O)cc2)NC1=O ({CH2CO}-YHIYYASLYGKLGCG-NH2; thioether N-14) |
| 1.4 | CC[C@H](C)[C@@H]1NC(=O)[C@H](Cc2c[nH]cn2)NC(=O)[C@H](Cc2ccc(O)cc2)NC(=O)CSC[C@@H](C(=O)NCC(N)=O)NC(=O)CNC(=O)[C@H](CC(C)C)NC(=O)[C@H](CC(=O)O)NC(=O)CNC(=O)[C@H](Cc2ccc(O)cc2)NC(=O)[C@H](CC(C)C)NC(=O)[C@H](CO)NC(=O)[C@H](C)NC(=O)[C@H](Cc2ccc(O)cc2)NC(=O)[C@H](Cc2ccc(O)cc2)NC1=O ({CH2CO}-YHIYYASLYGDLGCG-NH2; thioether N-14) |
